Test results from patent US20040259818A1, “Glucoronide adduct as gaba ligand” (priority 2001, published 2004).

Columns and labels:
[1] = target: α2 and/or α3 subunit of the human GABAA receptor; test: [3H]-flumazenil displacement binding assay, α2 and/or α3 subunit; conditions: displacement of [3H]-flumazenil; human GABAA receptors stably expressed in Ltk- cells; read-out: binding affinity (Ki) for the α2 and/or α3 subunit
Method: Assay buffer: 10 mM KH2PO4, 100 mM KCl, pH 7.4 at room temperature.
Flunitrazepam 100 μM in assay buffer.
Cells resuspended in assay buffer (1 tray to 10 ml).
Supernatant is removed from cells. PBS (approximately 20 ml) is added. The cells are scraped and placed in a 50 ml centrifuge tube. The procedure is repeated with a further 10 ml of PBS to ensure that most of the cells are removed. The cells are pelleted by centrifuging for 20 min at 3000 rpm in a benchtop centrifuge, and then frozen if desired. The pellets are resuspended in 10 ml of buffer per tray (25 cm×25 cm) of cells.
Can be carried out in deep 96-well plates or in tubes. Each tube contains:
50 μl of buffer or solvent carrier (e.g. 10% DMSO) if compounds are dissolved in 10% DMSO (total); test compound or flunitrazepam (to determine non-specific binding), 10 μM final concentration.
Assays are incubated for 1 hour at 40° C., then filtered using either a Tomtec or Brandel cell harvester onto GF/B filters followed by 3×3 ml washes with ice cold assay buffer. Filters are dried and counted by liquid scintillation counting. […] Binding parameters are determined by non-linear least squares regression analysis, from which the inhibition constant Ki can be calculated for each test compound.

[2] = target: T1, α3 subunit of the human GABAA receptor relative to α1 subunit (Homo sapiens, UniProt P18507+P34903); test: potentiation of the GABA EC20 response in stably transfected recombinant cell lines; assay type: cell-based; conditions: stably transfected recombinant cell lines expressing α3 vs α1 subunit of the human GABAA receptor
T1 construct: expressed in transfected cells; host or cells: stably transfected eukaryotic cells, typically mouse Ltk- fibroblasts
T1 sequence (P34903 29-492): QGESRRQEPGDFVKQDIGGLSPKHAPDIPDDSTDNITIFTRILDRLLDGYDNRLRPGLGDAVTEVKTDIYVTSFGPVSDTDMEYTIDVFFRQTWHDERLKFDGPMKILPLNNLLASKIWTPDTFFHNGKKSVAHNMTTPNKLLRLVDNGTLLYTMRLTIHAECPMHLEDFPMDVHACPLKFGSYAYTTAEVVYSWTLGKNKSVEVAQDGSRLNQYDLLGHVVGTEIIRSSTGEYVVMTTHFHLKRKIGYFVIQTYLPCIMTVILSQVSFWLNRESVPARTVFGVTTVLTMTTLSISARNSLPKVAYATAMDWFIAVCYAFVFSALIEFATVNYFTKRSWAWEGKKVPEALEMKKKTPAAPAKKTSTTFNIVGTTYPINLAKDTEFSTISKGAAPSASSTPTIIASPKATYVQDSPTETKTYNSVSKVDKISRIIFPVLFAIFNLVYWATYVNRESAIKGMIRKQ
T1 sequence (P28472 26-473 partner): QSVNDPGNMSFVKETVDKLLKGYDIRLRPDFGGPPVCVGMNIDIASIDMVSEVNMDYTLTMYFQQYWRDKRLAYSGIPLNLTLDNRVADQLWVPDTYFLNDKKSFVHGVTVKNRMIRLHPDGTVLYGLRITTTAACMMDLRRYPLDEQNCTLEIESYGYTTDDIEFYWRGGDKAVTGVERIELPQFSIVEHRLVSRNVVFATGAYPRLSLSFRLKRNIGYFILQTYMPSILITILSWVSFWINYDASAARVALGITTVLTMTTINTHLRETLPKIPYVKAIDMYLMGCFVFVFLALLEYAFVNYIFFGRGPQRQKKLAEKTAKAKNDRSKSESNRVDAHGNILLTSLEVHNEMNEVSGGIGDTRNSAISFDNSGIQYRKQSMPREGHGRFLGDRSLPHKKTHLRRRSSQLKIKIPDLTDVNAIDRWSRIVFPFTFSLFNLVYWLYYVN
T1 sequence (P18507 40-467 limits assumed): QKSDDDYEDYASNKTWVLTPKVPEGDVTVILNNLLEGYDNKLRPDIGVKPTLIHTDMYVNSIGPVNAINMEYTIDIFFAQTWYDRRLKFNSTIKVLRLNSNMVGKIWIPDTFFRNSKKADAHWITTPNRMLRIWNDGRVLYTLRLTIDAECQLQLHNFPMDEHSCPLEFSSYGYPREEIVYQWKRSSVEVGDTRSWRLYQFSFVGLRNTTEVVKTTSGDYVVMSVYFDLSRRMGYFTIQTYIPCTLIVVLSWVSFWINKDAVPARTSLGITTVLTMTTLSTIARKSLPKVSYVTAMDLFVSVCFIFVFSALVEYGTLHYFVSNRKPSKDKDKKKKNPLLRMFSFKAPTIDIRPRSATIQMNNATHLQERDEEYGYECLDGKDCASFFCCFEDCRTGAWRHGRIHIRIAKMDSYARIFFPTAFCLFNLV
Excerpt: The potentiation of the GABA EC20 response in stably transfected cell lines expressing the α3 and α1 subunits of the human GABAA receptor can conveniently be measured by procedures analogous to the protocol described in Wafford et al., Mol. Pharmacol., 1996, 50, 670-678. The procedure will suitably be carried out utilising cultures of stably transfected eukaryotic cells, typically of stably transfected mouse Ltk^− fibroblast cells.

[3] = elevated plus maze test; conditions: in vivo
[4] = conditioned suppression of drinking test; conditions: in vivo
[5] = response sensitivity (chain-pulling) test; conditions: in vivo
[6] = brain penetration inferred from behavioural effects; assay type: in vivo; conditions: inferred because it elicits behavioural effects
Excerpt: Since it elicits behavioural effects, the triazolo-pyridazine derivative of the invention plainly is brain-penetrant; in other words, it is capable of crossing the so-called “blood-brain barrier”. Advantageously, the triazolo-pyridazine derivative of the invention is capable of exerting its beneficial therapeutic action following administration by the oral route.

[7] = target: α3β3γ2 GABAA/BzR (Homo sapiens, UniProt P18507+P34903); test: biochemical
Chain of α3β3γ2 GABAA/BzR (P18507 whole entry, looked up): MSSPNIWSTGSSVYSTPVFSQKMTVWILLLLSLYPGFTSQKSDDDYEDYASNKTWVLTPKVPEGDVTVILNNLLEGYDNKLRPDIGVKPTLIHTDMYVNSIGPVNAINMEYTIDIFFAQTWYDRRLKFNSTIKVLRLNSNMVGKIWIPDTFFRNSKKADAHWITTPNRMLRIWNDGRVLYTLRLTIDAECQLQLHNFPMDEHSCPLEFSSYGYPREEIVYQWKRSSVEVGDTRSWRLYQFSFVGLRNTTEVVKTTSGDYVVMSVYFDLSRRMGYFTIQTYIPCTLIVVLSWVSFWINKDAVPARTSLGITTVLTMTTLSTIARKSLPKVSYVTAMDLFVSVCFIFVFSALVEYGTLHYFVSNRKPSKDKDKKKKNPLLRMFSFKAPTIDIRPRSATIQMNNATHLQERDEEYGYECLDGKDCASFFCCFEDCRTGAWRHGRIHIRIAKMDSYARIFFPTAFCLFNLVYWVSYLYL
Chain of α3β3γ2 GABAA/BzR (P34903 whole entry, looked up): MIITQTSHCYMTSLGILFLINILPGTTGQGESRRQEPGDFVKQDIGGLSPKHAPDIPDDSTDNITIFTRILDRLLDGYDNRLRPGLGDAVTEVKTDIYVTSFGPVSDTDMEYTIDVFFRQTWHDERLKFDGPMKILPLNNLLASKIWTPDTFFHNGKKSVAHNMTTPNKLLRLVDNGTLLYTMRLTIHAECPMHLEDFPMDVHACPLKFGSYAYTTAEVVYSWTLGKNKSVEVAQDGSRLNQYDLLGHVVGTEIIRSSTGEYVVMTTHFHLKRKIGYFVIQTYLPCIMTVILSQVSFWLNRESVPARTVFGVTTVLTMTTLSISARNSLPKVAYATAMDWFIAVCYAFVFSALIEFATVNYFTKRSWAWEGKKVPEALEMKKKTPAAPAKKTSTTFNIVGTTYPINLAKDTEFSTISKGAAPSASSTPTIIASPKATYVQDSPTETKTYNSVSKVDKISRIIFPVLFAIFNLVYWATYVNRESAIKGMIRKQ

CCn1ncnc1COc1nn2c(-c3ccccc3F)nnc2cc1C(C)(C)C [triazolo-pyridazine derivative, 7-(1,1-dimethylethyl)-6-(2-ethyl-2H-1,2,4-triazol-3-ylmethoxy)-3-(2-fluorophenyl)-1,2,4-triazolo[4,3-b]pyridazine]
Ki [1]: < 1 nM | potentiation of the GABA EC20 response, α3 relative to α1 [2]: selective potentiation | anxiolytic activity, elevated plus maze [3]: positive response | anxiolytic activity, conditioned suppression of drinking [4]: positive response | sedation, response sensitivity (chain-pulling) test [5]: substantially non-sedating | brain penetration (crossing the blood-brain barrier) [6]: brain-penetrant | Ki [7]: < 1 nM
